Measured values published in ChEMBL document CHEMBL1909514, “Imidazo[2,1-b]thiazole guanylhydrazones as RSK2 inhibitors” (Eur J Med Chem, 2011).

Assays:
[1] = Growth inhibition of human Hs 578T cells after 48 hrs by SRB assay; type: functional
PC-3 = assay: Growth inhibition of human PC3 cells after 48 hrs by SRB assay; type: functional; conditions: PC-3, 48 h
UO-31 = assay: Growth inhibition of human UO31 cells after 48 hrs by SRB assay; type: functional; conditions: UO-31, 48 h
ACHN = assay: Growth inhibition of human ACHN cells after 48 hrs by SRB assay; type: functional
786-0 = assay: Growth inhibition of human 786-0 cells after 48 hrs by SRB assay; type: functional; conditions: 786-0, 48 h
NCI/ADR-RES = assay: Growth inhibition of human NCI/ADR-RES cells after 48 hrs by SRB assay; type: functional
OVCAR-5 = assay: Growth inhibition of human OVCAR5 cells after 48 hrs by SRB assay; type: functional; conditions: OVCAR-5, 48 h
[2] = Growth inhibition of human OVCAR1 cells after 48 hrs by SRB assay; type: functional; conditions: OVCAR1, 48 h
UACC-62 = assay: Growth inhibition of human UACC62 cells after 48 hrs by SRB assay; type: functional; conditions: UACC-62, 48 h
SK-MEL-5 = assay: Growth inhibition of human SK-MEL-5 cells after 48 hrs by SRB assay; type: functional; conditions: SK-MEL-5, 48 h
M14 = assay: Growth inhibition of human M14 cells after 48 hrs by SRB assay; type: functional; conditions: M14, 48 h
MDA-MB-435 = assay: Growth inhibition of human MDA-MB-435 cells after 48 hrs by SRB assay; type: functional; conditions: MDA-MB-435, 48 h
U-251 = assay: Growth inhibition of human U251 cells after 48 hrs by SRB assay; type: functional; conditions: U-251, 48 h
LOX IMVI = assay: Growth inhibition of human LOXIMVI cells after 48 hrs by SRB assay; type: functional
SNB-75 = assay: Growth inhibition of human SNB75 cells after 48 hrs by SRB assay; type: functional; conditions: SNB-75, 48 h
SNB-19 = assay: Growth inhibition of human SNB19 cells after 48 hrs by SRB assay; type: functional; conditions: SNB-19, 48 h
SW-620 = assay: Growth inhibition of human SW620 cells after 48 hrs by SRB assay; type: functional; conditions: SW-620, 48 h
HT-29 = assay: Growth inhibition of human HT-29 cells after 48 hrs by SRB assay; type: functional; conditions: HT-29, 48 h
KM12 = assay: Growth inhibition of human KM12 cells after 48 hrs by SRB assay; type: functional; conditions: KM12, 48 h
HCT-116 = assay: Growth inhibition of human HCT116 cells after 48 hrs by SRB assay; type: functional; conditions: HCT-116, 48 h
NCI-H322M = assay: Growth inhibition of human NCI-H322M cells after 48 hrs by SRB assay; type: functional
NCI-H226 = assay: Growth inhibition of human NCI-H226 cells after 48 hrs by SRB assay; type: functional; conditions: NCI-H226, 48 h
HOP-62 = assay: Growth inhibition of human HOP62 cells after 48 hrs by SRB assay; type: functional; conditions: HOP-62, 48 h
RPMI-8226 = assay: Growth inhibition of human RPMI8226 cells after 48 hrs by SRB assay; type: functional; conditions: RPMI-8226, 48 h
K562 = assay: Growth inhibition of human K562 cells after 48 hrs by SRB assay; type: functional; conditions: K562, 48 h
HL-60(TB) = assay: Growth inhibition of human HL-60(TB) cells after 48 hrs by SRB assay; type: functional; conditions: HL-60, 48 h
[3] = molecular target: T1, Serine/threonine-protein kinase Chk1 (Homo sapiens, UniProt O14757)
T1 sequence (O14757 whole entry): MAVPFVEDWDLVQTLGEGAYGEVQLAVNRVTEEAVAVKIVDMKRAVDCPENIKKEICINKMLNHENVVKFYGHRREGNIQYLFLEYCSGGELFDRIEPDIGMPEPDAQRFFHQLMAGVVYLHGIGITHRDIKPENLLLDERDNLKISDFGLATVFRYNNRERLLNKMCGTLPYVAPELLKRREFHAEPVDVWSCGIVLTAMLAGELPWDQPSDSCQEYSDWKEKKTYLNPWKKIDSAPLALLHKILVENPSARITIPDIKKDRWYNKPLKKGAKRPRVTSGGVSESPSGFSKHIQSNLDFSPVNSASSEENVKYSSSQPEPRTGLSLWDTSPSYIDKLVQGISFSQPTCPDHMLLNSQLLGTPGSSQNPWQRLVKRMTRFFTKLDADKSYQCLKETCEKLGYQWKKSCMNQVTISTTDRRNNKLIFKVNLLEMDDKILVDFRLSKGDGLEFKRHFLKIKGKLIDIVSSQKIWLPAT

[4] = molecular target: Serine/threonine-protein kinase Chk2 (Homo sapiens, UniProt O96017)
Description: Inhibition of CHK2 assessed as inhibition of substrate phosphorylation using fluorescent peptide substrate by microplate reader assay

[5] = molecular target: T1, Serine/threonine-protein kinase Chk1; remark: listed apart in the source
Description: Inhibition of CHK1 assessed as inhibition of substrate phosphorylation using fluorescent peptide substrate by microplate reader assay

[6] = molecular target: Ribosomal protein S6 kinase alpha-1 (Homo sapiens, UniProt Q15418)
[7] = molecular target: Ribosomal protein S6 kinase alpha-3 (Homo sapiens, UniProt P51812)
[8] = read-out: pLC50 (the source's name) (converted)

Chain of Serine/threonine-protein kinase Chk2 (O96017 whole entry): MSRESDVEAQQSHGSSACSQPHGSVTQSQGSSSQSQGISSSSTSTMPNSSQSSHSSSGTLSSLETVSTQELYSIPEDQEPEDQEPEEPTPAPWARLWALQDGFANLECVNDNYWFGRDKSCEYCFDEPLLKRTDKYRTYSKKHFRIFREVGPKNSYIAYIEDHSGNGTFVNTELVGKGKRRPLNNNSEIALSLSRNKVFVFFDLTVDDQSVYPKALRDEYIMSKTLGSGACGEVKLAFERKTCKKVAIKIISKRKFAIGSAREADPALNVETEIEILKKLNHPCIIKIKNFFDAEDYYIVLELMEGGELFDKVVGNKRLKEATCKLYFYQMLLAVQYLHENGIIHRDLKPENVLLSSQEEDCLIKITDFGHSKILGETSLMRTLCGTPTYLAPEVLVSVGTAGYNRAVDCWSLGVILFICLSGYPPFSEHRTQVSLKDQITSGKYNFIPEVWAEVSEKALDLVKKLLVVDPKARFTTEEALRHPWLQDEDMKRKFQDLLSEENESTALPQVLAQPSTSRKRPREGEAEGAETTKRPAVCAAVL
Chain of Ribosomal protein S6 kinase alpha-3 (P51812 whole entry): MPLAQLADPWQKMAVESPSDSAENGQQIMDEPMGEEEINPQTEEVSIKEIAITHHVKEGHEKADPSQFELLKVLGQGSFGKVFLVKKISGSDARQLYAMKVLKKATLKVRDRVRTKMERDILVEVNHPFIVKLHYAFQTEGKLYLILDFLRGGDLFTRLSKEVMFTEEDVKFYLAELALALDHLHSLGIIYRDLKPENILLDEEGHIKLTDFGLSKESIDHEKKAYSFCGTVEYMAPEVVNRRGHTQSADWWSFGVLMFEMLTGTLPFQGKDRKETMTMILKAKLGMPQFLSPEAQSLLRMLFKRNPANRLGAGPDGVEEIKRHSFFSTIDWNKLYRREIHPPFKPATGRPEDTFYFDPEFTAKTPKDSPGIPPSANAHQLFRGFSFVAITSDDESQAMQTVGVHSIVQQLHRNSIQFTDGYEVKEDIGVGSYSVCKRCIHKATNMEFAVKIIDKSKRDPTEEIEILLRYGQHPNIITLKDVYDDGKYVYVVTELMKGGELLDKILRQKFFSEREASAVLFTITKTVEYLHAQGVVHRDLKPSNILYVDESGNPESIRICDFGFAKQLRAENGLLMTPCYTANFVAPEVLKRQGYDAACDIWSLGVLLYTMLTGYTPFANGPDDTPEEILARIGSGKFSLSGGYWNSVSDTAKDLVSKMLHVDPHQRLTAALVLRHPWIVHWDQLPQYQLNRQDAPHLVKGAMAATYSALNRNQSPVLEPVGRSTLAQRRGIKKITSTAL
Chain of Ribosomal protein S6 kinase alpha-1 (Q15418 whole entry): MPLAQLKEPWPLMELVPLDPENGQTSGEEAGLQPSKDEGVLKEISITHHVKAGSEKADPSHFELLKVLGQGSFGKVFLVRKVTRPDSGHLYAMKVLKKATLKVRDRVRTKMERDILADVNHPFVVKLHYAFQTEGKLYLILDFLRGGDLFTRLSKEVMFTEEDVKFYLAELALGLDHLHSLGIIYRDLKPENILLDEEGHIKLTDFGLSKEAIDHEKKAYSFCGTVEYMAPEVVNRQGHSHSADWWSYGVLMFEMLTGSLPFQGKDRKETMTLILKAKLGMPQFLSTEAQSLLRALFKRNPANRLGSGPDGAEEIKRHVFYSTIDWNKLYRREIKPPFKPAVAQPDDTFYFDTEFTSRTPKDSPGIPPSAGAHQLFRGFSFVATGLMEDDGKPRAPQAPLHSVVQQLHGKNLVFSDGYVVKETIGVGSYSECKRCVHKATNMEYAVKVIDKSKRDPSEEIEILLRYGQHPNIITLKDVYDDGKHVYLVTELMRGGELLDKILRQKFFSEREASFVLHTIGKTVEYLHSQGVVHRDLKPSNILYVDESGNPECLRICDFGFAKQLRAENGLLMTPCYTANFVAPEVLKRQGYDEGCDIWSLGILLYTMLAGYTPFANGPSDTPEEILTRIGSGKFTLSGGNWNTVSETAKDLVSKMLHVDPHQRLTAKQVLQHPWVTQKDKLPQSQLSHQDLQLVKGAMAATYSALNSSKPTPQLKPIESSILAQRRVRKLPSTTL

Question: Which GI50 [1] does the source give for N=C(N)N/N=C\c1c(-c2ccc([N+](=O)[O-])cc2)nc2sc(Br)cn12 here?
Answer: 288 nM

Question: What about the CC50 [1, 8] of the same molecule?
Answer: 3470 nM

Question: What about the TGI ([1]; read-out: pTGI (converted)) of the same molecule?
Answer: 933 nM

Question: And the GI50 (PC-3)?
Answer: 186 nM

Question: And the CC50 (PC-3; [8])?
Answer: 759 nM

Question: And the TGI (PC-3; read-out: pTGI (converted))?
Answer: 380 nM

Question: What about the GI50 (UO-31) of the same molecule?
Answer: 174 nM

Question: What about the CC50 (UO-31; [8]) of the same molecule?
Answer: 676 nM

Question: And the TGI (UO-31; read-out: pTGI (converted))?
Answer: 355 nM

Question: And the GI50 (ACHN)?
Answer: 295 nM

Question: And the CC50 (ACHN; [8])?
Answer: 5370 nM

Question: And the TGI (ACHN; read-out: pTGI (converted))?
Answer: 871 nM

Question: And the GI50 (786-0)?
Answer: 174 nM

Question: And the CC50 (786-0; [8])?
Answer: 575 nM

Question: And the TGI (786-0; read-out: pTGI (converted))?
Answer: 316 nM

Question: And the GI50 (NCI/ADR-RES)?
Answer: 219 nM

Question: And the CC50 (NCI/ADR-RES; [8])?
Answer: 3550 nM

Question: What about the TGI (NCI/ADR-RES; read-out: pTGI (converted)) of the same molecule?
Answer: 891 nM

Question: What about the GI50 (OVCAR-5) of the same molecule?
Answer: 186 nM

Question: What about the CC50 (OVCAR-5; [8]) of the same molecule?
Answer: 851 nM

Question: What about the TGI (OVCAR-5; read-out: pTGI (converted)) of the same molecule?
Answer: 398 nM

Question: What about the GI50 [2] of the same molecule?
Answer: 186 nM

Question: And the CC50 [2, 8]?
Answer: 661 nM

Question: What about the TGI ([2]; read-out: pTGI (converted)) of the same molecule?
Answer: 347 nM

Question: What about the GI50 (UACC-62) of the same molecule?
Answer: 347 nM

Question: And the CC50 (UACC-62; [8])?
Answer: 4570 nM

Question: What about the TGI (UACC-62; read-out: pTGI (converted)) of the same molecule?
Answer: 4470 nM

Question: And the GI50 (SK-MEL-5)?
Answer: 490 nM

Question: And the CC50 (SK-MEL-5; [8])?
Answer: 5370 nM

Question: And the TGI (SK-MEL-5; read-out: pTGI (converted))?
Answer: 1950 nM

Question: And the GI50 (M14)?
Answer: 229 nM

Question: What about the CC50 (M14; [8]) of the same molecule?
Answer: 1660 nM

Question: What about the TGI (M14; read-out: pTGI (converted)) of the same molecule?
Answer: 537 nM

Question: What about the GI50 (MDA-MB-435) of the same molecule?
Answer: 251 nM

Question: And the CC50 (MDA-MB-435; [8])?
Answer: 5370 nM

Question: What about the TGI (MDA-MB-435; read-out: pTGI (converted)) of the same molecule?
Answer: 7410 nM

Question: What about the GI50 (U-251) of the same molecule?
Answer: 195 nM

Question: And the CC50 (U-251; [8])?
Answer: > 100000 nM

Question: What about the GI50 (LOX IMVI) of the same molecule?
Answer: 191 nM

Question: And the TGI (LOX IMVI; read-out: pTGI (converted))?
Answer: 417 nM

Question: And the GI50 (SNB-75)?
Answer: 204 nM

Question: And the CC50 (SNB-75; [8])?
Answer: 1290 nM

Question: And the TGI (SNB-75; read-out: pTGI (converted))?
Answer: 4680 nM

Question: And the GI50 (SNB-19)?
Answer: 380 nM

Question: And the CC50 (SNB-19; [8])?
Answer: 5010 nM

Question: What about the TGI (SNB-19; read-out: pTGI (converted)) of the same molecule?
Answer: 4790 nM

Question: What about the GI50 (SW-620) of the same molecule?
Answer: 182 nM

Question: And the CC50 (SW-620; [8])?
Answer: 891 nM

Question: What about the TGI (SW-620; read-out: pTGI (converted)) of the same molecule?
Answer: 407 nM

Question: What about the GI50 (HT-29) of the same molecule?
Answer: 178 nM

Question: And the CC50 (HT-29; [8])?
Answer: 646 nM

Question: What about the TGI (HT-29; read-out: pTGI (converted)) of the same molecule?
Answer: 339 nM

Question: And the GI50 (KM12)?
Answer: 200 nM

Question: And the CC50 (KM12; [8])?
Answer: 759 nM

Question: What about the TGI (KM12; read-out: pTGI (converted)) of the same molecule?
Answer: 389 nM

Question: And the GI50 (HCT-116)?
Answer: 166 nM

Question: And the CC50 (HCT-116; [8])?
Answer: 832 nM

Question: And the TGI (HCT-116; read-out: pTGI (converted))?
Answer: 302 nM

Question: What about the GI50 (NCI-H322M) of the same molecule?
Answer: 309 nM

Question: What about the CC50 (NCI-H322M; [8]) of the same molecule?
Answer: 3980 nM

Question: What about the TGI (NCI-H322M; read-out: pTGI (converted)) of the same molecule?
Answer: 4170 nM

Question: What about the GI50 (NCI-H226) of the same molecule?
Answer: 1860 nM

Question: And the CC50 (NCI-H226; [8])?
Answer: > 100000 nM

Question: What about the TGI (NCI-H226; read-out: pTGI (converted)) of the same molecule?
Answer: 4470 nM

Question: And the GI50 (HOP-62)?
Answer: 191 nM

Question: And the CC50 (HOP-62; [8])?
Answer: 851 nM

Question: What about the TGI (HOP-62; read-out: pTGI (converted)) of the same molecule?
Answer: 3980 nM

Question: And the GI50 (RPMI-8226)?
Answer: 178 nM

Question: What about the TGI (RPMI-8226; read-out: pTGI (converted)) of the same molecule?
Answer: 417 nM

Question: What about the GI50 (K562) of the same molecule?
Answer: 40.7 nM

Question: What about the GI50 (HL-60(TB)) of the same molecule?
Answer: 219 nM

Question: And the IC50 [3]?
Answer: 13800 nM

Question: What about the IC50 [4] of the same molecule?
Answer: 88500 nM

Question: What about the IC50 [5] of the same molecule?
Answer: > 100000 nM

Question: What about the IC50 [6] of the same molecule?
Answer: 1180 nM

Question: And the IC50 [7]?
Answer: 607 nM
